According to patent US8703431B2, “Polypeptides for the in vitro assessment of the sensitising potential of a test compound” (Immunosearch, priority 2009, dated 2014):

Tests used:
[1] = skin sensitisation, as stated in the description; cited from earlier work
[2] = tested on: polypeptide SEQ ID NO: 1 wherein X1, X2, X3 and X4 each represent a lysine, having an NH2 group at its C-Terminal end; assay: HPLC test of % fixing of test compound on polypeptide; assay type: binding; conditions: for % fixing, SEQ ID NO: 1 (X1-X4 lysine, NH2 group at C-Terminal end): Example 5, 5 mM test compound, TRIS-HCl 100 mM, signal disturbed, preventing measurements greater than 82-83% fixing, these values represent a minimum; for precipitation of test compound during measurements with SEQ ID NO: 1: Example 5 conditions, explains the medium fixing results
Procedure: (§1) A test with 0.5 mM of polypeptide and 5 mM of test compound is carried out under the following conditions:
(§2) The reaction mixture containing 40 μl of peptide solution (1.25 mM stock solution in a 100 mM ammonium acetate buffer at pH 10.2 and the polypeptide of sequence SEQ ID NO: 18, SEQ ID NO: 7 in which X1, X2, X3 and X4 each represents a lysine, or SEQ ID NO: 8 in which X1, X2, X3 and X4 each represents a lysine), 35 μl of 100 mM ammonium acetate buffer solution, at pH 10.2, 20 μl of acetonitrile and 5 μl of solution to be tested (100 mM stock solution in acetonitrile or a 50% acetonitrile 50% DMSO mixture) was prepared and then stirred.
(§3) The reaction mixture was then put to incubate at 30° C. for 4 hours and in darkness.
(§4) HPLC analysis was then carried out at a gradient of 10% to 45% of buffer B (acetonitrile+0.08% of trifluoroacetic acid (TFA)) in 20 minutes (buffer A: water+0.1% of TFA), rate 1 ml/minute. Detection was carried out under UV at 230 nm.
(§5) The control without allergen consisted of 40 μl of buffer solution.
(§6) A test with twice 0.5 mM of polypeptides of sequences SEQ ID NO: 19 and SEQ ID NO: 1 wherein X1, X2, X3 and X4 each represent a lysine, and having an NH2 group at its C-Terminal end, and SEQ ID NO: 8 wherein X1, X2, X3 and X4 each represent a lysine, and 5 mM of test compound, was carried out in accordance with the same protocol as that described for example 1.
(§7) The buffer used was TRIS-HCl at 100 mM.
It should be noted, in the case of the tests of SEQ ID NO: 1, the signal was disturbed, preventing measurements greater than 82-83% fixing. These values consequently represent a minimum.
A coelution of the polypeptide with the allergens cinnamic aldehyde and 1,2-Benzisothiazolin-3-one was observed.

[3] = molecular target: T1, polypeptide SEQ ID NO: 8 in which X1, X2, X3 and X4 each represents a lysine (Mus musculus, UniProt O09114); assay: as above; assay type: binding; conditions: 5 mM test compound; for % fixing (mean), SEQ ID NO: 8 (X1-X4 lysine): Example 4; for fixing, SEQ ID NO: 8 (X1-X4 lysine), pH 8.3 / fixing, SEQ ID NO: 8 (X1-X4 lysine), pH 8.8 / fixing, SEQ ID NO: 8 (X1-X4 lysine), pH 9.2: Example 3; for fixing, SEQ ID NO: 8 (X1-X4 lysine), pH 8.3: twice 0.5 mM polypeptide (SEQ ID NO: 19 and 8), TRIS-HCl pH 8.3; for fixing, SEQ ID NO: 8 (X1-X4 lysine), pH 8.3 / fixing, SEQ ID NO: 8 (X1-X4 lysine), pH 9.2: 'Fixing' = fixing exists but not quantifiable; for fixing, SEQ ID NO: 8 (X1-X4 lysine), pH 8.8: TRIS-HCl pH 8.8; for fixing, SEQ ID NO: 8 (X1-X4 lysine), pH 9.2: TRIS-HCl pH 9.2
T1 construct: made in house; host or cells: chemical peptide synthesis (Fmoc)
T1 sequence (O09114 148-173 limits assumed): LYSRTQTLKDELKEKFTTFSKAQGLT
Procedure: as §1, §2, §3, §4, §5
(§8) The buffer used was 100 Mm TRIS-HCl at pH 8.3, pH 9.2 and pH 8.8.
as §7, §6

[4] = tested on: polypeptide of sequence SEQ ID NO: 19 (Ac-RFAACAA-NH2); assay: HPLC test of % fixing of test compound on polypeptide (positive control peptide); assay type: binding; conditions: 5 mM test compound; for % fixing (mean), SEQ ID NO: 19: Example 4; for fixing, SEQ ID NO: 19, pH 8.3 / fixing, SEQ ID NO: 19, pH 8.8 / fixing, SEQ ID NO: 19, pH 9.2: Example 3; for fixing, SEQ ID NO: 19, pH 8.3: twice 0.5 mM polypeptide (SEQ ID NO: 19 and 8), TRIS-HCl pH 8.3; for fixing, SEQ ID NO: 19, pH 8.3 / fixing, SEQ ID NO: 19, pH 8.8: 'Fixing' = fixing exists but not quantifiable; for fixing, SEQ ID NO: 19, pH 8.8: TRIS-HCl pH 8.8; for fixing, SEQ ID NO: 19, pH 9.2: TRIS-HCl pH 9.2
Procedure: as §1, §2, §3, §4, §5
A test with 0.5 mM of polypeptide of sequence […] and 5 mM of test compound was carried in accordance with the same protocol as that described for example 1.
The sequence SEQ ID NO: 19, which is not a lipocalin derivative, was used as a positive control. This sequence corresponds to the following sequence:
The buffer used was 100 mM TRIS-HCl at pH 8.3.
as §8, §7, §6

[5] = molecular target: T2, polypeptide SEQ ID NO: 7 in which X1, X2, X3 and X4 each represents a lysine (Mus musculus, UniProt P11672, DEL176-176); assay: HPLC test of % fixing of test compound on polypeptide; assay type: binding; conditions: 0.5 mM polypeptide, 5 mM test compound, 100 mM ammonium acetate buffer pH 10.2, 30° C., 4 hours, darkness
T2 construct: made in house; host or cells: chemical peptide synthesis (Fmoc)
T2 sequence (P11672 with tags, fused parts or gaps DEL176-176 limits assumed): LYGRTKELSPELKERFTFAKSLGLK
Procedure: as §1, §2, §3, §4, §5

[6] = tested on: polypeptide of sequence SEQ ID NO: 18 (Ac-RFAAKAA-NH2); assay: HPLC test of % fixing of test compound on polypeptide (positive control peptide); assay type: binding; conditions: 0.5 mM polypeptide, 5 mM test compound, 100 mM ammonium acetate buffer pH 10.2, 30° C., 4 hours, darkness
Procedure: as §1, §2
The sequence SEQ ID NO: 18, which is not a lipocalin derivative, was used as a positive control. This sequence corresponds to the following sequence:
as §3, §4, §5

[7] = twice 0.5 mM polypeptide, TRIS-HCl 100 mM, 'Fixing' = not quantifiable
[8] = Example 5, twice 0.5 mM polypeptide, TRIS-HCl 100 mM, 'Fixing' = not quantifiable
[9] = Example 2, 0.5 mM polypeptide, 100 mM TRIS-HCl pH 8.3
[10] = twice 0.5 mM polypeptide, TRIS-HCl 100 mM
[11] = Example 5, twice 0.5 mM polypeptide, TRIS-HCl 100 mM
[12] = 0.5 mM polypeptide, 100 mM ammonium acetate buffer pH 10.2, 30° C., 4 hours, darkness

| Compound | sensitising capacity (sensitiser class) [1] | % fixing, SEQ ID NO: 1 (X1-X4 lysine, NH2 group at C-Terminal end) [2] | % fixing (mean), SEQ ID NO: 8 (X1-X4 lysine) [3, 7] | % fixing, SEQ ID NO: 8 (X1-X4 lysine) [3, 8] | % fixing, SEQ ID NO: 19 [4, 9] | % fixing (mean), SEQ ID NO: 19 [4, 10] | % fixing, SEQ ID NO: 19 [4, 11] | fixing, SEQ ID NO: 8 (X1-X4 lysine), pH 8.3 [3] | fixing, SEQ ID NO: 8 (X1-X4 lysine), pH 8.8 ([3]; twice 0.5 mM polypeptide) | fixing, SEQ ID NO: 8 (X1-X4 lysine), pH 9.2 ([3]; twice 0.5 mM polypeptide) | fixing, SEQ ID NO: 19, pH 8.3 [4] | fixing, SEQ ID NO: 19, pH 8.8 ([4]; twice 0.5 mM polypeptide) | % fixing, SEQ ID NO: 8 (X1-X4 lysine) [3, 12] | % fixing, SEQ ID NO: 7 (X1-X4 lysine) [5] | % fixing, SEQ ID NO: 18 [6] | fixing, SEQ ID NO: 19, pH 9.2 ([4]; twice 0.5 mM polypeptide) | precipitation of test compound during measurements with SEQ ID NO: 1 [2] |
| --- | --- | --- | --- | --- | --- | --- | --- | --- | --- | --- | --- | --- | --- | --- | --- | --- | --- |
| CN(C)CCCN [3-DMAPA, 3-3-dimethylaminopropylamine] | moderate sensitisers | 3% | 6% | 6% | 25% | 15% | 15% | – | – | – | – | – | – | – | – | – | – |
| O=c1[nH]sc2ccccc12 [Ben, 1,2-benzisothiazolin-3-one] | moderate sensitisers | – | – | – | – | 90% | 90% | 100% | 100% | 0% | Fixing | Fixing | – | – | – | – | – |
| O=C/C=C/c1ccccc1 [CA, cinnamic aldehyde] | moderate sensitisers | – | 30% | 30% | – | – | – | – | – | – | – | – | 30% | 100% | 17% | – | – |
| CC(C)=CCCC(C)=CC=O [Cal, citral] | moderate sensitisers | 64% | 70% | 70% | 70% | 46% | 46% | – | – | – | – | – | – | – | – | – | – |
| Clc1ccccc1 [Cbz, chlorobenzene] | non-sensitising | 7.5% | 0% | 0% | 0% | 0% | 0% | – | – | – | – | – | 0% | 0% | 0% | – | – |
| O=c1c(-c2ccccc2)c1-c1ccccc1 [DPCP, diphenylcyclopropenone] | extremely strong sensitiser | 83.5% | – | – | 96% | 100% | 100% | – | – | – | – | – | – | – | – | – | – |
| O=CCCCC=O [GA, glutaraldehyde] | strong sensitisers | 83% | 50% | 50% | – | 33% | 33% | 50% | 100% | 50% | 22% | Fixing | – | – | – | 33% | – |
| Oc1ccc(O)cc1 [HQ, 1,4-hydroquinone] | strong sensitisers | 82.5% | 100% | 100% | – | 90% | 90% | 100% | 100% | Fixing | 100% | – | – | – | – | – | – |
| CC(O)C(=O)O (stereo not shown) [LA, lactic acid] | non-sensitising | 1% | 0% | 0% | – | 0% | 0% | 0% | 0% | 0% | 0% | 0% | – | – | – | 0% | – |
| CCCCCCCCCCCCOC(=O)c1cc(O)c(O)c(O)c1 [LG, lauryl gallate] | strong sensitisers | 41.5% | 62% | 62% | 100% | 100% | 100% | – | – | – | – | – | 63% | 100% | 62% | – | very greatly precipitated |
| CC(C=O)Cc1ccc(C(C)(C)C)cc1 (stereo not shown) [Li, lilial] | weak sensitiser | 12% | 0% | 0% | – | 18% | 18% | 0% | – | – | 36% | – | – | – | – | 0% | – |
| O=CCc1ccccc1 [PA, phenylacetaldehyde] | moderate sensitisers | 54% | Fixing | Fixing | – | 81% | 81% | Fixing | 0% | 21% | 100% | – | – | – | – | 86% | very greatly precipitated |
